Each structure is given as a SMILES string.

The assay deals with GST-Xa-hAAK1 (Homo sapiens (Human), UniProt Q2M2I8). As to the kind of experiment: AAK1 Kinase Assay. Format: biochemical. As to conditions: bacterially expressed GST-Xa-hAAK1 3.5 nM; ATP 22 μM; fluoresceinated peptide 1.5 μM; 3 hours at room temperature; Caliper LabChip 3000. The procedure:
The assays were performed in U-bottom 384-well plates. […] The reactions were initiated by the combination of bacterially expressed, GST-Xa-hAAK1 with substrates and test compounds. The reactions were incubated at room temperature for 3 hours and terminated by adding 60 μl of 35 mM EDTA buffer to each sample. The reactions were analyzed on the Caliper LabChip 3000 (Caliper, Hopkinton, Mass.) by electrophoretic separation of the fluorescent substrate and phosphorylated product. […] Compounds were dissolved at 10 mM in dimethylsulfoxide (DMSO) and evaluated at eleven concentrations. IC50 values were derived by non-linear regression analysis.

GST-Xa-hAAK1, sequence (Q2M2I8 whole entry): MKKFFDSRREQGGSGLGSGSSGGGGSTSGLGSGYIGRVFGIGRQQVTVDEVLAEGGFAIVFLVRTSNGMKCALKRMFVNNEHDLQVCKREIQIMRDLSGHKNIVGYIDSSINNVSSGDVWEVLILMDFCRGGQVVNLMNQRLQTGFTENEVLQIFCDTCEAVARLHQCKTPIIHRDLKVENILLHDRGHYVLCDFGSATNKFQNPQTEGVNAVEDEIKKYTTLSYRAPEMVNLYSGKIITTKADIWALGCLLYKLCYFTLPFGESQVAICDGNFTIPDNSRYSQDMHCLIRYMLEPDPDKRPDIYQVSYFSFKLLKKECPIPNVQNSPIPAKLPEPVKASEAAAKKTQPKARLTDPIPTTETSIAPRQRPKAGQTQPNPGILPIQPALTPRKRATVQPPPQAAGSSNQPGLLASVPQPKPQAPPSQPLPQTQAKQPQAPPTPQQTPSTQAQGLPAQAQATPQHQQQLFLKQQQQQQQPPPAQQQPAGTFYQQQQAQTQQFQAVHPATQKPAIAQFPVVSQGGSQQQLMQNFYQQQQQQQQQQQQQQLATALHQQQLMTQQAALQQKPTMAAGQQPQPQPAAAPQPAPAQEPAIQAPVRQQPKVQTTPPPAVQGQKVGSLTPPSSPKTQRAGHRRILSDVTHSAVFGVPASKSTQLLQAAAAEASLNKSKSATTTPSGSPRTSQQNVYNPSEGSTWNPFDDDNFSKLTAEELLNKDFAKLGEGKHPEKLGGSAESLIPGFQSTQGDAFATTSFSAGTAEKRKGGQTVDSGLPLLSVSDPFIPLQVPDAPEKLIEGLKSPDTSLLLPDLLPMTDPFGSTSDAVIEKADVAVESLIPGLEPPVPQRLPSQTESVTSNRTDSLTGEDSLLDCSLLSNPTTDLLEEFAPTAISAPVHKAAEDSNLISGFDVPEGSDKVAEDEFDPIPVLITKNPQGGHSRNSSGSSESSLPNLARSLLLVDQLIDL

For the compound `CCOC(=O)Nc1nccc(-c2ccc(OC[C@@](C)(N)CC(C)C)c(C(F)(F)F)c2)n1` [Example 314, (S)-ethyl (4-(4-((2-amino-2,4-dimethylpentyl)oxy)-3-(trifluoromethyl)phenyl)pyrimidin-2-yl)carbamate], the half-maximal inhibitory concentration (IC50) is 1.2 nM.

On to `CC(C)C[C@](C)(N)COc1ccc(-c2ccnc(CF)c2)nc1CF` [Example 324, (S)-1-((2′,6-bis(fluoromethyl)-[2,4′-bipyridin]-5-yl)oxy)-2,4-dimethylpentan-2-amine], for which the IC50 is 4.8 nM. Turning to `CC(C)C[C@](C)(N)COc1ccc(-c2cc(Cl)ncn2)cc1C(F)(F)F` [Example 442, (S)-1-(4-(6-chloropyrimidin-4-yl)-2-(trifluoromethyl)phenoxy)-2,4-dimethylpentan-2-amine], the IC50 worked out at 19 nM. For `COc1cc(-c2ccc(OC[C@@](C)(N)CC(C)C)c(C)c2)ccn1` [Example 386, (S)-1-(4-(2-methoxypyridin-4-yl)-2-methylphenoxy)-2,4-dimethylpentan-2-amine] the value was 13 nM; for `Cc1cc(-c2ccc(OC[C@@](C)(N)CC(C)C)c(CF)n2)ccn1` [Example 320, (S)-1-((6-(fluoromethyl)-2′-methyl-[2,4′-bipyridin]-5-yl)oxy)-2,4-dimethylpentan-2-amine], 21 nM. `Cc1cc(-c2cnc(OC[C@@](C)(N)CC(C)C)c(C)c2)ncn1` [Example 446, (S)-2,4-dimethyl-1-((3-methyl-5-(6-methylpyrimidin-4-yl)pyridin-2-yl)oxy)pentan-2-amine]: the half-inhibitory concentration (IC50) worked out at 317 nM. As for `Cc1cc(-c2ccc(OC[C@@](C)(N)CC(C)C)c(CF)n2)ncn1` [Example 387, (S)-1-((2-(fluoromethyl)-6-(6-methylpyrimidin-4-yl)pyridin-3-yl)oxy)-2,4-dimethylpentan-2-amine], the IC50 stood at 1010 nM. Take `COC(=O)Nc1nccc(-c2cnc(OC[C@@](C)(N)CC(C)C)cc2C)n1` [Example 374, (S)-methyl (4-(6-((2-amino-2,4-dimethylpentyl)oxy)-4-methylpyridin-3-yl)pyrimidin-2-yl)carbamate]: the IC50 came to 339 nM.

On to `Cc1nccc(-c2ccc(OC[C@@](C)(N)CC(C)C)c(C)n2)n1` [Example 484, (S)-2,4-dimethyl-1-(2-methyl-6-(2-methylpyrimidin-4-yl)pyridin-3-yloxy)pentan-2-amine], for which the IC50 came out at 3.2 nM. In the case of `CC(C)C[C@](C)(N)COc1ccc(-c2ccnc(C(F)F)n2)cc1C#N` [Example 315, (S)-2-((2-amino-2,4-dimethylpentyl)oxy)-5-(2-(difluoromethyl)pyrimidin-4-yl)benzonitrile], the half-inhibitory concentration (IC50) is 1.5 nM.

In the case of `CC(C)C[C@](C)(N)COc1ccc(-c2cc(N)ncn2)cc1Cl` [Example 285, (S)-6-(4-((2-amino-2,4-dimethylpentyl)oxy)-3-chlorophenyl)pyrimidin-4-amine], the IC50 is 1.1 nM.

Regarding `Cc1cc(-c2cnc(OC[C@@](C)(N)CC(C)C)c(Cl)c2)ncn1` [Example 445, (S)-1-((3-chloro-5-(6-methylpyrimidin-4-yl)pyridin-2-yl)oxy)-2,4-dimethylpentan-2-amine], the IC50 is 62 nM. For the compound `CCc1cc(-c2ccc(OC[C@@](C)(N)CC(C)C)c(C#N)c2)ncn1` [Example 443, (S)-2-((2-amino-2,4-dimethylpentyl)oxy)-5-(6-ethylpyrimidin-4-yl)benzonitrile], the IC50 was 46 nM. For `Cc1nc(-c2cc(N)ncn2)ccc1OC[C@@](C)(N)CC(C)C` [Example 343, (S)-6-(5-((2-amino-2,4-dimethylpentyl)oxy)-6-methylpyridin-2-yl)pyrimidin-4-amine] the value was 19 nM; for `COC(=O)Nc1nccc(-c2cc(F)c(OC[C@@](C)(N)CC(C)C)cc2F)n1` [Example 508, (S)-methyl (4-(4-((2-amino-2,4-dimethylpentyl)oxy)-2,5-difluorophenyl)pyrimidin-2-yl)carbamate], 25 nM; for `Cc1cc(-c2ccc(OC[C@@](C)(N)CC(C)C)c(Cl)c2)ncn1` [Example 308, (S)-1-(2-chloro-4-(6-methylpyrimidin-4-yl)phenoxy)-2,4-dimethylpentan-2-amine], 12 nM. As to `CCc1cc(-c2cnc(OC[C@@](C)(N)CC(C)C)c(C)c2)ncn1` [Example 447, (S)-1-((5-(6-ethylpyrimidin-4-yl)-3-methylpyridin-2-yl)oxy)-2,4-dimethylpentan-2-amine], the IC50 was found to be 304 nM. For `Cc1nccc(-c2ccc(OC[C@](C)(N)CC(C)C)c(C)n2)n1` [Example 354, (R)-2,4-dimethyl-1-((2-methyl-6-(2-methylpyrimidin-4-yl)pyridin-3-yl)oxy)pentan-2-amine] the value was 321 nM; for `Cc1cc(-c2cc(C(F)(F)F)c(OCC(C)(N)CC(C)C)cn2)ccn1` (stereo in doubt) [Example 164, (R)-2,4-dimethyl-1-((2′-methyl-4-(trifluoromethyl)-[2,4′-bipyridin]-5-yl)oxy)pentan-2-amine], 254 nM; for `Cc1nccc(-c2ccc(OCC(N)(CC(C)C)C(F)(F)F)c(C)n2)n1` (single isomer, unassigned) [Example 360, 1,1,1-trifluoro-4-methyl-2-(((2-methyl-6-(2-methylpyrimidin-4-yl)pyridin-3-yl)oxy)methyl)pentan-2-amine], 1250 nM.

On to `CC(C)C[C@](C)(N)COc1ccc(-c2ccnc(C(C)C)n2)cc1F` [Example 337, (S)-1-(2-fluoro-4-(2-isopropylpyrimidin-4-yl)phenoxy)-2,4-dimethylpentan-2-amine], for which the IC50 was 886 nM. With `Cc1nccc(-c2ccc(OC[C@@](C)(N)CC(C)C)c(C(F)(F)F)c2)n1` [Example 290, (S)-2,4-dimethyl-1-(4-(2-methylpyrimidin-4-yl)-2-(trifluoromethyl)phenoxy)pentan-2-amine], the 50% inhibitory concentration (IC50) was 0.6 nM.

On to `Cc1nccc(-c2ccc(OC[C@@](C)(N)CC(C)C)c(F)c2)n1` [Example 462, (S)-1-(2-fluoro-4-(2-methylpyrimidin-4-yl)phenoxy)-2,4-dimethylpentan-2-amine], for which the IC50 came out at 21 nM.

`CC(C)CC1(COc2ccc(-c3ccnc(C(F)F)c3)nc2C(F)F)CCN1` (stereo not shown) [Example 326, 2′,6-bis(difluoromethyl)-5-((2-isobutylazetidin-2-yl)methoxy)-2,4′-bipyridine]: the 50% inhibitory concentration (IC50) turned out to be 42 nM. Turning to `Cc1cc(-c2ccc(OC[C@@](C)(N)CC(C)C)c(C(F)(F)F)c2)nc(C)n1` [Example 479, (S)-1-(4-(2,6-dimethylpyrimidin-4-yl)-2-(trifluoromethyl)phenoxy)-2,4-dimethylpentan-2-amine], the IC50 came to 533 nM. With `Cc1nc(-c2ccnc(N)c2)ccc1OC[C@@](C)(N)CC(C)C` [Example 422, (S)-5-((2-amino-2,4-dimethylpentyl)oxy)-6-methyl-[2,4′-bipyridin]-2′-amine], the IC50 stood at 3.5 nM.

As for `Cc1cc(-c2cc(N)ncn2)ccc1OC[C@@](C)(N)CC(C)C` [Example 431, (S)-6-(4-((2-amino-2,4-dimethylpentyl)oxy)-3-methylphenyl)pyrimidin-4-amine], the 50% inhibitory concentration (IC50) amounted to 5.4 nM.

As to `Cc1nccc(-c2cnc(OCC(N)(CC(C)C)C(F)(F)F)c(C)c2)n1` (stereo not shown) [Example 274, 1,1,1-trifluoro-4-methyl-2-(((3-methyl-5-(2-methylpyrimidin-4-yl)pyridin-2-yl)oxy)methyl)pentan-2-amine], the IC50 was 986 nM. `CC(C)C[C@](C)(N)COc1ccc(-c2ccnc(Cl)n2)cc1C(F)(F)F` [Example 370, (S)-1-(4-(2-chloropyrimidin-4-yl)-2-(trifluoromethyl)phenoxy)-2,4-dimethylpentan-2-amine]: the IC50 amounted to 1.4 nM. Turning to `Cc1nccc(-c2ccc(OC[C@@](C)(N)CC(C)C)c(C(F)(F)F)n2)n1` [Example 454, (S)-2,4-dimethyl-1-((6-(2-methylpyrimidin-4-yl)-2-(trifluoromethyl)pyridin-3-yl)oxy)pentan-2-amine], the IC50 was determined as 2.4 nM. For the compound `COc1cc(-c2ccc(OC[C@@](C)(N)CC(C)C)c(C#N)c2)ncn1` [Example 439, (S)-2-((2-amino-2,4-dimethylpentyl)oxy)-5-(6-methoxypyrimidin-4-yl)benzonitrile], the IC50 came out at 128 nM.

In the case of `Cc1nccc(-c2ccc(OC[C@@](C)(N)CC(C)C)c(C)c2)n1` [Example 329, (S)-2,4-dimethyl-1-(2-methyl-4-(2-methylpyrimidin-4-yl)phenoxy)pentan-2-amine], the IC50 is 2.4 nM. In the case of `Cc1nccc(-c2ccc(OC[C@@](C)(N)CC(C)C)c(CF)n2)n1` [Example 279], the IC50 worked out at 23 nM. Next, `CC(C)C[C@](C)(N)COc1cc(F)c(-c2ccnc(C(F)F)c2)cc1F` [Example 510, (S)-1-(4-(2-(difluoromethyl)pyridin-4-yl)-2,5-difluorophenoxy)-2,4-dimethylpentan-2-amine]: 19 nM. Next, `CC(C)C[C@](C)(N)COc1ccc(-c2ccnc(C(C)C)n2)cc1Cl` [Example 480, (S)-1-(2-chloro-4-(2-isopropylpyrimidin-4-yl)phenoxy)-2,4-dimethylpentan-2-amine]: 18 nM; `COc1nccc(-c2ccc(OC[C@@](C)(N)CC(C)C)c(C(F)(F)F)c2)n1` [Example 316, (S)-1-(4-(2-methoxypyrimidin-4-yl)-2-(trifluoromethyl)phenoxy)-2,4-dimethylpentan-2-amine]: 8.2 nM. Regarding `CC(C)CC(=O)Nc1cc(-c2ccc(OC[C@@](C)(N)CC(C)C)c(C(F)(F)F)c2)ccn1` [Example 395, (S)-N-(4-(4-((2-amino-2,4-dimethylpentyl)oxy)-3-(trifluoromethyl)phenyl)pyridin-2-yl)-3-methylbutanamide], the IC50 was 0.7 nM.

As usually defined, the IC50 is the point on the concentration scale where inhibition reaches its midpoint.

The record behind these values is US10544120B2, “Biaryl kinase inhibitors” (BRISTOL-MYERS SQUIBB COMPANY, priority 2015, dated 2020).
